Drawing on patent US10457667B2, “Indolin-2-one derivatives” (Hoffmann-La Roche Inc., priority 2015, dated 2019), this text covers IC50 for 18 compounds.

This assay deals with T1, mouse ENT-1 transporter (Mus musculus, UniProt Q9JIM1).
T1 construct: expressed in transfected cells
T1 sequence (Q9JIM1 1-460): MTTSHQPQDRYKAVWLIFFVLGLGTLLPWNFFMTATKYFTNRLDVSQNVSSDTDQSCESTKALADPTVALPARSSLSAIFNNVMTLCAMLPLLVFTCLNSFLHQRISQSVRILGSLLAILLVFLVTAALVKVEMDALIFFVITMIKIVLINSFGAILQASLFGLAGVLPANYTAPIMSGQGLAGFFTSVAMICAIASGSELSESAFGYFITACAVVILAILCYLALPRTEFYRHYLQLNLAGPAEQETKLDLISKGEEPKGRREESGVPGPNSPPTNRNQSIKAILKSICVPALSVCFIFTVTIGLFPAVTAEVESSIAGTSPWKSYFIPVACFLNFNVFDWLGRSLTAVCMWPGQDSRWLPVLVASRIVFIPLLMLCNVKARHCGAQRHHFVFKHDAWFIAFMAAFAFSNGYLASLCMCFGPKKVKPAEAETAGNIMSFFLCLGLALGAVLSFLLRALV
Kind of assay: ENT1 adenosine uptake inhibition ([3H]-adenosine transport activity). The assay is classed as cell-based. The settings on record: stable cells expressing mouse ENT-1; [2,8-3H]-adenosine 6 nM, 20 min. The protocol:
To measure adenosine transport activity of ENT-1 mammalian cells, stable cells expressing the mouse ENT-1 transporter were plated on day 1 in 96-well culture plates at the density of 60,000 cells/well, in complete DMEM/F12 medium supplemented with glutamax, 10% FBS and 10 μg/ml puromycin. On day 2, the medium was aspirated and the cells were washed twice with uptake buffer (10 mM Hepes-Tris, pH 7.4 containing 150 mM NaCl, 1 mM CaCl2, 2.5 mM KCl, 2.5 mM MgSO4, 10 mM D-glucose) (UB). For inhibition experiments, cells were then incubated at RT with various concentrations of compounds with 1% DMSO final. Non-specific uptake was defined in the presence of 10 μM S-(4-Nitrobenzyl)-6-thioinosine (NBTI, Sigma Cat #N2255).
A solution containing [2,8-^3H]-adenosine 6 nM (40 Ci/mmol, American Radiolabeled chemicals Inc, Cat #ART 0287A) was then immediately added to the wells. The plates were then incubated for 20 min with gentle shaking and the reaction was stopped by aspiration of the mixture and washing (three times) with ice-cold UB. The cells were lysed by the addition of scintillation liquid, shaken 3 hours and the radioactivity in the cells was estimated using a microplates scintillation counter (TopCount NXT, Packard).
As for `Cc1ncc(-c2ccc3c(c2)N(c2ccc(OC(F)(F)F)cn2)C(=O)C3(C)C)cn1` [Example 14, 3,3-Dimethyl-6-(2-methylpyrimidin-5-yl)-1-(5-(trifluoromethoxy)pyridin-2-yl)indolin-2-one], half-maximal inhibition (IC50) was put at 118 nM. This counts as sub-micromolar.
Next, `COc1ncc(N2C(=O)C(C)(C)c3ccc(-c4cnc(C)nc4)cc32)cn1` [Example 15, 1-(2-Methoxypyrimidin-5-yl)-3,3-dimethyl-6-(2-methylpyrimidin-5-yl)indolin-2-one]: 843 nM; `Cc1ncc(-c2ccc3c(c2)N(c2cnc4c(c2)OCCN4)C(=O)C3(C)C)cn1` [Example 8, 1-(3,4-Dihydro-2H-pyrido[3,2-b][1,4]oxazin-7-yl)-3,3-dimethyl-6-(2-methylpyrimidin-5-yl)indolin-2-one]: 951 nM; `Cc1ncc(-c2ccc3c(c2)N(c2ccc(OCC(F)(F)F)nc2)C(=O)C3(C)C)cn1` [Example 16, 3,3-Dimethyl-6-(2-methylpyrimidin-5-yl)-1-(6-(2,2,2-trifluoroethoxy)pyridin-3-yl)indolin-2-one]: 811 nM.
Next, `COc1cncc(N2C(=O)C3(CCC3)c3ccc(-c4cnc(C)nc4)cc32)c1` [Example 19, 1′-(5-Methoxypyridin-3-yl)-6′-(2-methylpyrimidin-5-yl)spiro[cyclobutane-1,3′-indolin]-2′-one]: 785 nM; `COc1cncc(N2C(=O)C(C)(C)c3ccc(-c4cnc(C)nc4)cc32)n1` [Example 1, 1-(6-Methoxypyrazin-2-yl)-3,3-dimethyl-6-(2-methylpyrimidin-5-yl)indolin-2-one]: 73 nM; `COc1cc(N2C(=O)C(C)(C)c3ccc(-c4cnc(C)nc4)cc32)cnc1Cl` [Example 9, 1-(6-Chloro-5-methoxypyridin-3-yl)-3,3-dimethyl-6-(2-methylpyrimidin-5-yl)indolin-2-one]: 154 nM.
On to `COc1cc(N2C(=O)C(C)(C)c3ccc(-c4cnc(C)nc4)cc32)cnc1C` [Example 3, 1-(5-Methoxy-6-methylpyridin-3-yl)-3,3-dimethyl-6-(2-methylpyrimidin-5-yl)indolin-2-one], for which it took 242 nM to reach half-maximal inhibition (IC50).
Turning to `Cc1ncc(-c2ccc3c(c2)N(c2ccc4onc(C)c4c2)C(=O)C3(C)C)cn1` [Example 18, 3,3-Dimethyl-1-(3-methylbenzo[d]isoxazol-5-yl)-6-(2-methylpyrimidin-5-yl)indolin-2-one], 50.9 nM corresponded to half-maximal inhibition (IC50).
`COc1cccc(N2C(=O)C(C)(C)c3ccc(-c4cnc(C)nc4)cc32)c1` [Example 6, 1-(3-Methoxyphenyl)-3,3-dimethyl-6-(2-methylpyrimidin-5-yl)indolin-2-one] returned an IC50 of 289 nM.
The compound `Cc1ncc(-c2ccc3c(c2)N(c2cncc(OC(C)C)c2)C(=O)C3(C)C)cn1` [Example 7, 1-(5-Isopropoxypyridin-3-yl)-3,3-dimethyl-6-(2-methylpyrimidin-5-yl)indolin-2-one] returned an IC50 of 183 nM.
`COc1cc(N2C(=O)C(C)(C)c3ccc(-c4cnc(C)nc4)cc32)cnc1C1CC1` [Example 10, 1-(6-Cyclopropyl-5-methoxypyridin-3-yl)-3,3-dimethyl-6-(2-methylpyrimidin-5-yl)indolin-2-one] yielded an IC50 of 139 nM. This IC50 and that of the compound before are within 1.5-fold of each other.
Next, `Cc1ncc(-c2ccc3c(c2)N(c2cnc(OC4COC4)nc2)C(=O)C3(C)C)cn1` [Example 17, 3,3-Dimethyl-6-(2-methylpyrimidin-5-yl)-1-(2-(oxetan-3-yloxy)pyrimidin-5-yl)indolin-2-one]: 823 nM; `COc1cc(N2C(=O)C(C)(C)c3ccc(-c4cnc(C)nc4)cc32)nc(OC)n1` [Example 4, 1-(2,6-Dimethoxypyrimidin-4-yl)-3,3-dimethyl-6-(2-methylpyrimidin-5-yl)indolin-2-one]: 110 nM.
As to `Cc1ncc(-c2ccc3c(c2)N(c2ccc(O)nn2)C(=O)C3(C)C)cn1` [Example 13, 1-(6-Hydroxypyridazin-3-yl)-3,3-dimethyl-6-(2-methylpyrimidin-5-yl)indolin-2-one], the 50% inhibitory concentration (IC50) turned out to be 615 nM.
`COc1ccc(N2C(=O)C3(CCC3)c3ccc(-c4cnc(C)nc4)cc32)nn1` [Example 20, 1′-(6-Methoxypyridazin-3-yl)-6′-(2-methylpyrimidin-5-yl)spiro[cyclobutane-1,3′-indolin]-2′-one] showed a 50% inhibitory concentration (IC50) of 130 nM.
The same measure for `COc1cnc(N2C(=O)C(C)(C)c3ccc(-c4cnc(C)nc4)cc32)cn1` [Example 11, 1-(5-Methoxypyrazin-2-yl)-3,3-dimethyl-6-(2-methylpyrimidin-5-yl)indolin-2-one]: 272 nM.
The same measure for `CCOc1cncc(N2C(=O)C(C)(C)c3ccc(-c4cnc(C)nc4)cc32)c1` [Example 5, 1-(5-Ethoxypyridin-3-yl)-3,3-dimethyl-6-(2-methylpyrimidin-5-yl)indolin-2-one]: 64.3 nM.

Usually IC50 stands for the midpoint of a concentration-inhibition curve.
